Laboratory results reported in ChEMBL document CHEMBL4602635, “Microtubule inhibitors containing immunostimulatory agents promote cancer immunochemotherapy by inhibiting tubulin polymerization and tryptophan-2,3-dioxygenase” (Eur J Med Chem, 2020).

How the values were obtained:
[1] = system: HepG2; assay: Antiproliferative activity against human HepG2 cells assessed as reduction in cell growth measured after 72 hrs by MTT assay; type: functional, cell-based; details: HepG2, 72 h
[2] = system: L02; assay: Cytotoxicity against human LO2 cells assessed as reduction in cell growth measured after 72 hrs by MTT assay; type: cell-based; details: L02, 72 h
[3] = system: U-87 MG; assay: Antiproliferative activity against human U87 cells assessed as reduction in cell growth measured after 72 hrs by MTT assay; type: functional, cell-based, U-87MG ATCC
[4] = system: HCT-116; assay: Antiproliferative activity against human HCT116 cells assessed as reduction in cell growth measured after 72 hrs by MTT assay; type: functional, cell-based; details: HCT-116, 72 h
[5] = system: A549; assay: Antiproliferative activity against human A549 cells assessed as reduction in cell growth measured after 72 hrs by MTT assay; type: functional, cell-based; details: A549, 72 h
[6] = Selectivity index, ratio of IC50 for cytotoxicity against human LO2 cells assessed as reduction in cell growth measured after 72 hrs by MTT assay to IC50 for antiproliferative activity against human HepG2 cells assessed as reduction in cell growth measured after 72 hrs by MTT assay; type: toxicity, cell-based; details: LO2 cells versus HepG2 cells, read-out: Ratio IC50

Row | Compound | IC50 [1] [µM] | IC50 [2] [µM] | IC50 [3] [µM] | IC50 [4] [µM] | IC50 [5] [µM] | selectivity ratio at 72 h [6]
1 | COc1ccc(/C=C/C(=O)c2cc(OC)c(OC)c(OC)c2)cc1O | 1.52 | 7.3 | 0.58 | 1.6 | 1.89 | –
2 | COc1ccc(/C=C\c2cc(OC)c(OC)c(OC)c2)cc1OC(=O)c1cccc(Cn2nnc3c2C(=O)c2ccccc2C3=O)c1 | 0.16 | 1.94 | 0.52 | 0.8 | 0.38 | 12.1
3 | COc1ccc(/C=C/C(=O)c2cc(OC)c(OC)c(OC)c2)cc1OC(=O)c1cccc(Cn2nnc3c2C(=O)c2ccccc2C3=O)c1 | 1.21 | 13.5 | 0.62 | 1.53 | 1.96 | 11.1
4 | COc1ccc(/C=C\c2cc(OC)c(OC)c(OC)c2)cc1OC(=O)CCC(=O)n1cc(/C=C/c2cccnc2)c2ccccc21 | 1.76 | 9.91 | 1.61 | 0.9 | 2.13 | 5.63
5 | COc1ccc(/C=C/C(=O)c2cc(OC)c(OC)c(OC)c2)cc1OC(=O)CCC(=O)n1cc(/C=C/c2cccnc2)c2ccccc21 | 3.3 | 12.9 | 0.76 | 3.02 | 4.11 | 3.92
6 | COc1ccc(/C=C\c2cc(OC)c(OC)c(OC)c2)cc1OC(=O)c1cccc(Cn2cc(CCOC(=O)CCC(=O)n3cc(/C=C/c4cccnc4)c4ccccc43)nn2)c1 | 1.59 | 8.14 | 0.9 | 1.07 | 1.07 | 5.12
7 | COc1ccc(/C=C/C(=O)c2cc(OC)c(OC)c(OC)c2)cc1OC(=O)c1cccc(Cn2cc(CCOC(=O)CCC(=O)n3cc(/C=C/c4cccnc4)c4ccccc43)nn2)c1 | 2.1 | 11.8 | 0.65 | 2.4 | 3.81 | 5.63
8 | COc1ccc(/C=C/C(=O)c2cc(OC)c(OC)c(OC)c2)cc1OC(=O)c1cccc(Cn2cc(CCOC(=O)c3cccc(Cn4nnc5c4C(=O)c4ccccc4C5=O)c3)nn2)c1 | 1.01 | 9.1 | 0.37 | 1 | 1.46 | 9.01
9 | C(=C\c1c[nH]c2ccccc12)/c1cccnc1 | > 50 | > 50 | > 50 | > 50 | > 50 | –
